Key:
[1] = Half life in human liver microsome at 1 uM by LC/MS/MS analysis; type: ADME; settings: liver microsomes
[2] = Hepatic clearance in rat liver microsome at 1 uM by LC/MS/MS analysis; type: ADME; settings: liver microsomes
[3] = Half life in rat liver microsome at 1 uM by LC/MS/MS analysis; type: ADME; settings: liver microsomes
[4] = Bioavailability in Sprague-Dawley rat at 0.5 mg/kg, iv and 5 mg/kg, po; type: ADME, organism-based; settings: in vivo
[5] = Half life in Sprague-Dawley rat at 0.5 mg/kg, iv and 5 mg/kg, po; type: ADME, organism-based; settings: in vivo
[6] = Clearance in Sprague-Dawley rat at 0.5 mg/kg, iv and 5 mg/kg, po; type: ADME, organism-based; settings: in vivo
[7] = Fraction unbound in Sprague-Dawley rat at 0.5 mg/kg, iv and 5 mg/kg, po; type: ADME, organism-based; settings: plasma
[8] = Hepatic clearance in human liver microsome at 1 uM by LC/MS/MS analysis; type: ADME; settings: liver microsomes
Hexokinase-4 = molecular target: T1, Hexokinase-4 (Homo sapiens, UniProt P35557)
T1 sequence (P35557 whole entry): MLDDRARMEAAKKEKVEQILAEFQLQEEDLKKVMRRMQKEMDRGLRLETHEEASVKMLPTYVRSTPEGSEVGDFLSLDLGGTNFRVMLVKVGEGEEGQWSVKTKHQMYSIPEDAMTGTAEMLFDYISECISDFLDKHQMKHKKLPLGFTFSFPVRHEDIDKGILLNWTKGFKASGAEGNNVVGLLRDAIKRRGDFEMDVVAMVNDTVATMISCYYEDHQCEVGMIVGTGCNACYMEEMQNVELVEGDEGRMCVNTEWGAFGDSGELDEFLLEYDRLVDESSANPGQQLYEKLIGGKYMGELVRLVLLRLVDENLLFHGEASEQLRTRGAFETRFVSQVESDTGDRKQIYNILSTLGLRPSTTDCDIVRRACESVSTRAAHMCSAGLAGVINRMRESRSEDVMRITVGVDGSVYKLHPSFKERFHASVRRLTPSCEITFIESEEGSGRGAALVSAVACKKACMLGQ
Description: Activation of human recombinant glucokinase using 6.5 mM glucose by spectrophotometry

Cc1cnc(NC(=O)[C@H](CC2CCCC2)n2ccc(S(C)(=O)=O)cc2=O)cn1
half-life at 1 µM [1]: > 120 min | CLhep predicted at 1 µM [2]: 1.86 L/h/kg | half-life at 1 µM [3]: 56 min | bioavailability [4]: 2% | half-life [5]: 12 min | clearance [6]: 20.2 L/h/kg | fraction unbound [7]: 0.35 | CLhep predicted at 1 µM [8]: < 0.3 L/h/kg | EC50 (Hexokinase-4): 3.5 µM

Cc1ccc(NC(=O)[C@H](CC(C)C)n2ccc(S(=O)(=O)C(C)C)cc2=O)nc1
EC50 (Hexokinase-4): 0.51 µM

Cc1csc(NC(=O)c2cc(Sc3nccn3C)c(F)cc2N)n1
EC50 (Hexokinase-4): 0.62 µM

Cc1ccc(NC(=O)[C@H](CC2CCCC2)n2ccc(S(C)(=O)=O)cc2=O)nc1
half-life at 1 µM [1]: > 120 min | CLhep predicted at 1 µM [2]: 3.48 L/h/kg | half-life at 1 µM [3]: 9 min | CLhep predicted at 1 µM [8]: 0.3 L/h/kg | EC50 (Hexokinase-4): 0.56 µM

CCS(=O)(=O)c1ccn([C@@H](CC2CCCC2)C(=O)Nc2ccc(C)cn2)c(=O)c1
EC50 (Hexokinase-4): 0.5 µM

Cc1ccc(NC(=O)[C@H](CC2CCCC2)n2ccc(S(=O)(=O)C(C)C)cc2=O)nc1
EC50 (Hexokinase-4): 0.23 µM

Cc1ccc(NC(=O)[C@H](CC2CCCC2)n2ccc(S(=O)(=O)C3CC3)cc2=O)nc1
EC50 (Hexokinase-4): 0.11 µM

Cc1ccc(NC(=O)[C@H](CC2CCCC2)n2ccc(S(=O)(=O)C3CCC3)cc2=O)nc1
EC50 (Hexokinase-4): 0.06 µM

Cc1ccc(NC(=O)[C@H](CC2CCCC2)n2cc(Cl)c(S(C)(=O)=O)cc2=O)nc1
EC50 (Hexokinase-4): 0.48 µM

Cc1ccc(NC(=O)[C@H](CC2CCCC2)n2cc(C)c(S(C)(=O)=O)cc2=O)nc1
EC50 (Hexokinase-4): 0.44 µM

Cc1ccc(NC(=O)[C@H](CC2CCCC2)n2cc(Cl)c(S(=O)(=O)C(C)C)cc2=O)nc1
EC50 (Hexokinase-4): 0.26 µM

Cc1ccc(NC(=O)[C@H](CC2CCCC2)n2cc(C)c(S(=O)(=O)C(C)C)cc2=O)nc1
EC50 (Hexokinase-4): 0.16 µM

Cc1ccc(NC(=O)[C@H](CC2CCCC2)n2ccc(S(=O)(=O)C(C)C)c(Cl)c2=O)nc1
EC50 (Hexokinase-4): 0.07 µM

Cc1ccc(NC(=O)[C@H](CC2CCC2)n2ccc(S(=O)(=O)C(C)C)cc2=O)nc1
EC50 (Hexokinase-4): 0.67 µM

Cc1ccc(NC(=O)[C@H](CC2CCCCC2)n2ccc(S(=O)(=O)C(C)C)cc2=O)nc1
EC50 (Hexokinase-4): 0.24 µM

Cc1ccc(NC(=O)[C@H](CC2CCC(F)(F)CC2)n2ccc(S(=O)(=O)C(C)C)cc2=O)nc1
half-life at 1 µM [1]: 73 min | CLhep predicted at 1 µM [2]: 2.16 L/h/kg | half-life at 1 µM [3]: 42 min | CLhep predicted at 1 µM [8]: 0.48 L/h/kg | EC50 (Hexokinase-4): 0.16 µM

CCS(=O)(=O)c1ccn([C@@H](CC2CCOCC2)C(=O)Nc2ccc(C)cn2)c(=O)c1
half-life at 1 µM [1]: > 120 min | CLhep predicted at 1 µM [2]: < 1.08 L/h/kg | half-life at 1 µM [3]: > 120 min | CLhep predicted at 1 µM [8]: < 0.3 L/h/kg | EC50 (Hexokinase-4): 1.5 µM

Cc1ccc(NC(=O)[C@H](Cc2ccccc2)n2ccc(S(=O)(=O)C(C)C)cc2=O)nc1
EC50 (Hexokinase-4): 3.3 µM

CC(C)S(=O)(=O)c1ccn([C@@H](CC2CCCC2)C(=O)Nc2ccccn2)c(=O)c1
EC50 (Hexokinase-4): 0.6 µM

CC(C)S(=O)(=O)c1ccn([C@@H](CC2CCCC2)C(=O)Nc2ccc(C(F)(F)F)cn2)c(=O)c1
EC50 (Hexokinase-4): 0.33 µM

CS(=O)(=O)c1cc(=O)n([C@@H](CC2CCCC2)C(=O)Nc2ccc(Cl)cn2)cc1Cl
EC50 (Hexokinase-4): 0.14 µM

O=C(Nc1cnccn1)[C@H](CC1CCCC1)n1ccc(S(=O)(=O)C2CC2)cc1=O
EC50 (Hexokinase-4): 1.3 µM

O=C(Nc1cnccn1)[C@H](CC1CCCC1)n1ccc(S(=O)(=O)C2CCC2)cc1=O
EC50 (Hexokinase-4): 0.59 µM

Cc1cnc(NC(=O)[C@H](CC2CCCC2)n2cc(Cl)c(S(=O)(=O)C(C)C)cc2=O)cn1
EC50 (Hexokinase-4): 0.7 µM

CC(C)S(=O)(=O)c1ccn([C@@H](CC2CCCC2)C(=O)Nc2cc[nH]n2)c(=O)c1
EC50 (Hexokinase-4): 0.72 µM

CC(C)S(=O)(=O)c1ccn([C@@H](CC2CCCC2)C(=O)Nc2ccn(C)n2)c(=O)c1
half-life at 1 µM [1]: 93 min | CLhep predicted at 1 µM [2]: 3.48 L/h/kg | half-life at 1 µM [3]: 8 min | bioavailability [4]: 8% | half-life [5]: 12 min | clearance [6]: 9.84 L/h/kg | fraction unbound [7]: 0.59 | CLhep predicted at 1 µM [8]: 0.6 L/h/kg | EC50 (Hexokinase-4): 0.91 µM

Cn1ccc(NC(=O)[C@H](CC2CCCC2)n2ccc(S(=O)(=O)C3CC3)cc2=O)n1
EC50 (Hexokinase-4): 1.5 µM

Cn1ccc(NC(=O)[C@H](CC2CCCC2)n2ccc(S(=O)(=O)C3CCC3)cc2=O)n1
EC50 (Hexokinase-4): 0.26 µM

CC(C)S(=O)(=O)c1ccn([C@@H](CC2CCCC2)C(=O)Nc2nccs2)c(=O)c1
EC50 (Hexokinase-4): 1.3 µM

— ChEMBL document CHEMBL1782019, “Pyridones as glucokinase activators: identification of a unique metabolic liability of the 4-sulfonyl-2-pyridone heterocycle” (Bioorg Med Chem Lett, 2009)
